Counter-ions that a name gives are not always drawn.
Experiments:
Assay type in all cases: biochemical
human a-thrombin = target: T1, human a-thrombin (Homo sapiens, UniProt P00734); test: Enzymatic assay for thrombin (fluorogenic peptide substrate Boc-VPR-AMC); settings: room temperature, 20 mM Hepes pH 7.4, 20 min
T1 construct: enzyme (human a-thrombin (BioPharm® Lab.)); purchased BioPharm Lab
Outline: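 Human α-thrombin was incubated with serially diluted compound and fluorogenic substrate Boc-VPR-AMC in 20 mM Hepes pH 7.4, 140 mM NaCl, 0.1% Tween 20 at room temperature. The reaction was stopped after 20 min with 0.1 M acetic acid and fluorescence read. % activity was normalized to DMSO and no-enzyme controls, and IC50 was taken as equivalent to Ki.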

MASP-2 (CCP1-CCP2-SP) = target: T2, MASP-2 (CCP1-CCP2-SP) (Homo sapiens, UniProt O00187); test: Enzymatic assay for MASP-2 inhibitory activity (fluorogenic substrate); settings: room temperature, 20 mM Hepes pH 7.4, 20 min
T2 construct: 15 μL of Enzyme MASP-2 (CCP1-CCP2-SP) in Assay Buffer
Outline: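 Human MASP-2 CCP1-CCP2-SP construct with a C2-cleavage-site fluorogenic substrate in 20 mM HEPES pH 7.4, 140 mM NaCl, 0.1% Tween 20, 20 min at room temperature before acetic acid stop. Activity normalised to DMSO and no-enzyme controls; IC50 taken as equivalent to Ki under linear conditions.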

[1] = tested on: Lectin Pathway Activation (LPA) in human serum; test: Lectin pathway activation (LPA) assay in human serum, C4 deposition on mannan-coated plate; settings: 1% pooled human serum, 55 minutes, room temperature
Experimental: A Microtiter ELISA plate (Nunc-Maxi Sorp; Sigma-Aldrich®, USA) was coated with mannan sourced from Saccharomyces cerevisiae (Sigma-Aldrich®, USA) in a coating buffer comprising 33.3 mM Na2CO3 and 166.67 mM NaHCO3. The plates were incubated at room temperature overnight. Subsequently, the plates were blocked with a 5% bovine serum albumin solution (Sigma-Aldrich®, USA) prepared in PBST for 2 hours at room temperature with agitation. Varying concentrations of MASP-2 inhibitors were dispensed onto the empty plate.
To perform the assay, pooled human serum was diluted to 1% in a solution of 20 mM HEPES (pH=7.4), 140 mM NaCl, and 1 mM MgCl2. Then, 40 μl of the diluted human serum was dispensed into each well of the Microtiter ELISA plate and incubated for 55 minutes at room temperature. The C4 deposition on the mannan-coated surface was stopped using an EDTA stop solution (20 mM HEPES, pH=7.4, 140 mM NaCl, and 150 mM EDTA). Subsequently, rabbit anti-Human C4c antibody (Agilent Technologies, USA) prepared in PBST was added, and the plates were incubated at room temperature for 30 minutes with agitation, then washed with PBST, and Goat anti-rabbit IgG(H+L) HRP-conjugated (Southern Biotech®, USA) was added. The plates were again incubated at room temperature for 30 minutes with agitation, and then were washed with PBST. Following this, the Amplex® UltraRed® (Thermo Fischer Sci, USA) substrate solution was added for 16 minutes, followed by the addition of the Amplex® UltraRed® stop solution. The plates' fluorescence was measured using an i3× microplate reader (Molecular Devices, USA) with excitation at 550 nm and emission at 580 nm. The raw data generated from the plate reader was exported to GraphPad Prism® (version 10.0.3), and the non-linear regression curve was generated using the 4-parameter logistic fit equation. All data are reported as pIC50 with a 95% confidence interval.

T2 sequence (O00187 287-686 limits assumed): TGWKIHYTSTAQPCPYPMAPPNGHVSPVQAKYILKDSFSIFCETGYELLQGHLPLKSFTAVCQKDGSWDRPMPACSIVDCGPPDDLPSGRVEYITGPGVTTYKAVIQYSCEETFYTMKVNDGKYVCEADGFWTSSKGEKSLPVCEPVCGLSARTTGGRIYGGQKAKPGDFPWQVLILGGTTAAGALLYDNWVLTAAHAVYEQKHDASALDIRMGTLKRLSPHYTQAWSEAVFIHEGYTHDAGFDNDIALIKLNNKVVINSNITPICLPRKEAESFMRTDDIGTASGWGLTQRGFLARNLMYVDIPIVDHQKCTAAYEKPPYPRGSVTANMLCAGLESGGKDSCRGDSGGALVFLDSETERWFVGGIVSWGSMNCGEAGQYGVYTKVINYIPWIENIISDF

| Ki (human a-thrombin) [nM] | Ki (MASP-2 (CCP1-CCP2-SP)) [nM] | IC50 [1] [nM] | SMILES |
| --- | --- | --- | --- |
| 500 to 2500 | < 500 | < 500 | COc1ccc(CNc2cnc3n(c2=O)[C@H](C(=O)NCc2ccc(N)nc2C)CC3)cc1F [Compound 46, (S)-N-((6-amino-2-methylpyridin-3-yl)methyl)-3-((3-fluoro-4-methoxybenzyl)amino)-4-oxo-4,6,7,8-tetrahydropyrrolo[1,2-a]pyrimidine-6-carboxamide, di-trifluoroacetate] |
| 500 to 2500 | < 500 | < 500 | Cc1ccccc1CNc1cnc2n(c1=O)[C@H](C(=O)NCc1ccc(N)nc1C)CC2 [Compound 54, (S)—N-((6-amino-2-methylpyridin-3-yl)methyl)-3-((2-methylbenzyl)amino)-4-oxo-4,6,7,8-tetrahydropyrrolo[1,2-a]pyrimidine-6-carboxamide] |
| 500 to 2500 | < 500 | < 500 | Cc1nc(N)ccc1CNC(=O)[C@@H]1CCc2ncc(NCc3cccc(OC(F)F)c3)c(=O)n21 [Compound 75, (S)-N-((6-amino-2-methylpyridin-3-yl)methyl)-3-((3-(difluoromethoxy)benzyl)amino)-4-oxo-4,6,7,8-tetrahydro-pyrrolo[1,2-a]pyrimidine-6-carboxamide] |
| 500 to 2500 | < 500 | < 500 | Cc1ccc(F)c(CNc2cnc3n(c2=O)[C@H](C(=O)N[C@@H]2CCc4nc(N)ccc42)CC3)c1 [Compound 95] |
| > 25000 | < 500 | < 500 | Cc1cc(C)cc(CNc2cnc3n(c2=O)[C@H](C(=O)NCc2ccc4cncn4c2)CC3)c1 [Compound 20, (S)-3-((3,5-dimethylbenzyl)amino)-N-(imidazo[1,5-a]pyridin-6-ylmethyl)-4-oxo-4,6,7,8-tetrahydropyrrolo[1,2-a]pyrimidine-6-carboxamide] |
| < 500 | < 500 |  | N#Cc1cc(Cl)cc(CNc2cnc3n(c2=O)[C@H](C(=O)N[C@@H]2CCc4nc(N)ccc42)CC3)c1 [Compound 89, (S)-N-((R)-2-amino-6,7-dihydro-5H-cyclopenta[b]pyridin-5-yl)-3-((3-chloro-5-cyanobenzyl)amino)-4-oxo-4,6,7,8-tetrahydro-pyrrolo[1,2-a]pyrimidine-6-carboxamide] |
| 500 to 2500 | < 500 |  | COc1cccc(CNc2cnc3n(c2=O)[C@H](C(=O)NCc2ccc(N)nc2C)CC3)c1C [Compound 48, (S)-N-((6-amino-2-methylpyridin-3-yl)methyl)-3-((3-methoxy-2-methylbenzyl)amino)-4-oxo-4,6,7,8-tetrahydropyrrolo[1,2-a]pyrimidine-6-carboxamide, trifluoroacetate] |
| 500 to 2500 | < 500 |  | Cc1nc(N)ccc1CNC(=O)[C@@H]1CCc2ncc(NCc3cc(OC(F)(F)F)ccc3F)c(=O)n21 [Compound 41, (S)-N-((6-amino-2-methylpyridin-3-yl)methyl)-3-((2-fluoro-5-(trifluoromethoxy)benzyl)amino)-4-oxo-4,6,7,8-tetrahydro-pyrrolo[1,2-a]pyrimidine-6-carboxamide, di-trifluoroacetate] |
| 500 to 2500 | < 500 |  | Cc1nc(N)ccc1CNC(=O)[C@@H]1CCc2ncc(NCc3cccc(-n4cccn4)c3)c(=O)n21 [Compound 40, (S)-3-((3-(1H-pyrazol-1-yl)benzyl)amino)-N-((6-amino-2-methylpyridin-3-yl)methyl)-4-oxo-4,6,7,8-tetrahydropyrrolo[1,2-a]pyrimidine-6-carboxamide, trifluoroacetate] |
| < 500 | < 500 |  | Cc1cc(C)cc(CNc2cnc3n(c2=O)[C@H](C(=O)NCc2cncc(Cl)c2)CC3)c1 [Compound 17, (S)—N-((5-chloropyridin-3-yl)methyl)-3-((3,5-dimethylbenzyl)amino)-4-oxo-4,6,7,8-tetrahydropyrrolo[1,2-a]pyrimidine-6-carboxamide, trifluoroacetate] |
| 10000 to 25000 | < 500 |  | Cc1nc(N)ccc1CNC(=O)[C@@H]1CCc2ncc(NCc3cccc(C(=O)O)c3)c(=O)n21 [Compound 13, (S)-3-(((6-(((6-amino-2-methylpyridin-3-yl)methyl)carbamoyl)-4-oxo-4,6,7,8-tetrahydropyrrolo[1,2-a]pyrimidin-3-yl)amino)methyl)benzoic acid] |
| 500 to 2500 | < 500 |  | Cc1nc(N)ccc1CNC(=O)[C@@H]1CCc2ncc(NCc3cccc(Cl)c3)c(=O)n21 [Compound 58] |
| 500 to 2500 | < 500 |  | Cc1cccc(CNc2cnc3n(c2=O)[C@H](C(=O)NCc2ccc(N)nc2C)CC3)c1 [Compound 60, (S)—N-((6-amino-2-methylpyridin-3-yl)methyl)-3-((3-methylbenzyl)amino)-4-oxo-4,6,7,8-tetrahydropyrrolo[1,2-a]pyrimidine-6-carboxamide] |
| 500 to 2500 | < 500 |  | Cc1nc(N)ccc1CNC(=O)[C@@H]1CCc2ncc(NCc3ccccc3C(F)F)c(=O)n21 [Compound 27, (S)—N-((6-amino-2-methylpyridin-3-yl)methyl)-3-((2-(difluoromethyl)benzyl)amino)-4-oxo-4,6,7,8-tetrahydropyrrolo[1,2-a]pyrimidine-6-carboxamide, di-trifluoroacetate] |
| 2500 to 10000 | < 500 |  | Cc1c(C#N)cccc1CNc1cnc2n(c1=O)[C@H](C(=O)N[C@@H]1CCc3nc(N)ccc31)CC2 [Compound 92, (S)-N-((R)-2-amino-6,7-dihydro-5H-cyclopenta[b]pyridin-5-yl)-3-((3-cyano-2-methylbenzyl)amino)-4-oxo-4,6,7,8-tetrahydro-pyrrolo[1,2-a]pyrimidine-6-carboxamide] |
| 2500 to 10000 | < 500 |  | Nc1ccc2c(n1)CC[C@H]2NC(=O)[C@@H]1CCc2ncc(NCc3ccc4c(c3)OCC4)c(=O)n21 [Compound 99] |
| 10000 to 25000 | 500 to 2500 |  | CCN(Cc1cc(C)cc(OC)c1)c1cnc2n(c1=O)[C@H](C(=O)NCc1ccc(N)nc1C)CC2 [Compound 67, (S)—N-((6-amino-2-methylpyridin-3-yl)methyl)-3-(ethyl(3-methoxy-5-methylbenzyl)amino)-4-oxo-4,6,7,8-tetrahydropyrrolo[1,2-a]pyrimidine-6-carboxamide] |
| 10000 to 25000 | < 500 |  | Cc1nc(N)ccc1CNC(=O)[C@@H]1CCc2ncc(NCc3c(F)cccc3F)c(=O)n21 [Compound 32, (S)-N-((6-amino-2-methylpyridin-3-yl)methyl)-3-((2,6-difluorobenzyl)amino)-4-oxo-4,6,7,8-tetrahydropyrrolo[1,2-a]pyrimidine-6-carboxamide, di-trifluoroacetate] |
| 500 to 2500 | < 500 |  | N#Cc1cc(F)cc(CNc2cnc3n(c2=O)[C@H](C(=O)N[C@@H]2CCc4nc(N)ccc42)CC3)c1 [Compound 93, (S)-N-((R)-2-amino-6,7-dihydro-5H-cyclopenta[b]pyridin-5-yl)-3-((3-cyano-5-fluorobenzyl)amino)-4-oxo-4,6,7,8-tetrahydro-pyrrolo[1,2-a]pyrimidine-6-carboxamide] |
| 500 to 2500 | < 500 |  | Cc1nc(N)ccc1CNC(=O)[C@@H]1CCc2ncc(NCc3cc(F)cc(Cl)c3)c(=O)n21 [Compound 56, (S)—N-((6-amino-2-methylpyridin-3-yl)methyl)-3-((3-chloro-5-fluorobenzyl)amino)-4-oxo-4,6,7,8-tetrahydropyrrolo[1,2-a]pyrimidine-6-carboxamide] |
| 500 to 2500 | < 500 |  | CC(=O)c1cccc(CNc2cnc3n(c2=O)[C@H](C(=O)N[C@@H]2CCc4nc(N)ccc42)CC3)c1 [Compound 104] |
| > 25000 | 2500 to 10000 |  | Cc1cc(C)cc(CNc2cnc3n(c2=O)[C@H](C(=O)NCc2cccnc2C)CC3)c1 [Compound 23, (S)-3-((3,5-dimethylbenzyl)amino)-N-((2-methylpyridin-3-yl)methyl)-4-oxo-4,6,7,8-tetrahydropyrrolo[1,2-a]pyrimidine-6-carboxamide, trifluoroacetate] |

From patent US20240228499A1, “MASP-2 INHIBITORS AND METHODS OF USE” (Omeros Corporation, priority 2022, published 2024)
